In the supplement of paper PMC4932681:

Columns and labels:
MCF-7 [1] = assay: relative IC50 (midpoint of fitted logistic curve, plateau may be below 50% inhibition; CellTiter-Glo viability); higher = less potent; settings: 72 h
How it was run: (§1)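 After seeding into 384-well plates with library drugs at five concentrations spanning a 10 000-fold range, breast cancer cell lines and their resistant derivatives were incubated 72 h at 37 °C. Resistant lines received medium with 1 μM of the selecting drug. CellTiter-Glo signal was read on a PHERAstar and scaled to vehicle-only and positive controls. Drug sensitivity score, relative IC50 (the curve midpoint) and top-dose inhibition came from logistic fits run in the Breeze pipeline.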

BT-474 [2] = assay: as above; settings: 72 h
How it was run: as §1

T-47D Tam1 [3] = assay: as above; settings: 4-OH-tamoxifen in medium 1 µM; 72 h
How it was run: as §1

BT-474 Tam2 [4] = assay: as above; settings: 4-OH-tamoxifen in medium 1 µM; 72 h
How it was run: as §1

T-47D [5] = assay: as above; settings: 72 h
How it was run: as §1

T-47D Tam2 [6] = assay: as above; settings: 4-OH-tamoxifen in medium 1 µM; 72 h
How it was run: as §1

BT-474 Tam1 [7] = assay: as above; settings: 4-OH-tamoxifen in medium 1 µM; 72 h
How it was run: as §1

ZR-75-1 Tam2 [8] = assay: drug sensitivity score (DSS) (DSS (dimensionless)); higher = more sensitive; extreme values may be limits of the assay; settings: 4-OH-tamoxifen in medium 1 µM; 72 h
Method: (§2)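 FIMM FO2B library drugs were tested at 5 concentrations (10,000-fold range) for 72 h, with CellTiter-Glo viability normalised to DMSO and benzethonium chloride controls. The Drug Sensitivity Score (DSS) is computed from the fitted logistic dose-response curve (area-based; 0 = inactive). Resistant lines and the 'in 1µM tamoxifen' arms were tested in 1 µM 4-OH-tamoxifen.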

MCF-7 [9] = assay: as above; settings: 72 h
Method: as §2

BT-474 [10] = assay: as above; settings: 72 h
Method: as §2

ZR-75-1 Tam1 [11] = assay: as above; settings: 4-OH-tamoxifen in medium 1 µM; 72 h
Method: as §2

T-47D Tam1 [12] = assay: as above; settings: 4-OH-tamoxifen in medium 1 µM; 72 h
Method: as §2

ZR-75-1 [13] = assay: as above; settings: 72 h
Method: as §2

BT-474 Tam2 [14] = assay: as above; settings: 4-OH-tamoxifen in medium 1 µM; 72 h
Method: as §2

T-47D [15] = assay: as above; settings: 72 h
Method: as §2

T-47D Tam2 [16] = assay: as above; settings: 4-OH-tamoxifen in medium 1 µM; 72 h
Method: as §2

MCF-7 Tam1 = assay: as above; settings: 4-OH-tamoxifen in medium 1 µM; 72 h
Method: as §2

BT-474 Tam1 [17] = assay: as above; settings: 4-OH-tamoxifen in medium 1 µM; 72 h
Method: as §2

ZR-75-1 [18] = assay: relative IC50 (midpoint of fitted logistic curve, plateau may be below 50% inhibition; CellTiter-Glo viability); higher = less potent; settings: 4-OH-tamoxifen in medium 0 µM; 72 h
How it was run: as §1

ZR-75-1 Tam1 [19] = assay: as above; settings: 4-OH-tamoxifen in medium 1 µM; 72 h
How it was run: as §1

ZR-75-1 Tam2 [20] = assay: as above; settings: 4-OH-tamoxifen in medium 1 µM; 72 h
How it was run: as §1

Row | Structure (SMILES) | relative IC50 (MCF-7 [1]; 4-OH-tamoxifen in medium 0 µM) | relative IC50 (MCF-7 [1]; 4-OH-tamoxifen in medium 1 µM) | relative IC50 (BT-474 [2]; 4-OH-tamoxifen in medium 0 µM) | relative IC50 (BT-474 [2]; 4-OH-tamoxifen in medium 1 µM) | relative IC50 (T-47D Tam1 [3]) | relative IC50 (BT-474 Tam2 [4]) | relative IC50 (T-47D [5]; 4-OH-tamoxifen in medium 0 µM) | relative IC50 (T-47D Tam2 [6]) | relative IC50 (BT-474 Tam1 [7]) | relative IC50 (T-47D [5]; 4-OH-tamoxifen in medium 1 µM) | drug sensitivity score (ZR-75-1 Tam2 [8]) | drug sensitivity score (MCF-7 [9]; 4-OH-tamoxifen in medium 0 µM) | drug sensitivity score (MCF-7 [9]; 4-OH-tamoxifen in medium 1 µM) | drug sensitivity score (BT-474 [10]; 4-OH-tamoxifen in medium 0 µM) | drug sensitivity score (BT-474 [10]; 4-OH-tamoxifen in medium 1 µM) | drug sensitivity score (ZR-75-1 Tam1 [11]) | drug sensitivity score (T-47D Tam1 [12]) | drug sensitivity score (ZR-75-1 [13]; 4-OH-tamoxifen in medium 0 µM) | drug sensitivity score (ZR-75-1 [13]; 4-OH-tamoxifen in medium 1 µM) | drug sensitivity score (BT-474 Tam2 [14]) | drug sensitivity score (T-47D [15]; 4-OH-tamoxifen in medium 0 µM) | drug sensitivity score (T-47D [15]; 4-OH-tamoxifen in medium 1 µM) | drug sensitivity score (T-47D Tam2 [16]) | drug sensitivity score (MCF-7 Tam1) | drug sensitivity score (BT-474 Tam1 [17]) | relative IC50 (ZR-75-1 [18]) | relative IC50 (ZR-75-1 Tam1 [19]) | relative IC50 (ZR-75-1 Tam2 [20])
1 | CCc1cncnc1N1CCN(Cc2nc3ccc(C(F)(F)F)cc3[nH]2)CC1 | 2920 nM | 1100 nM | 3300 nM | 4060 nM | 1570 nM | 3220 nM | 1530 nM | 2310 nM | 3230 nM | – | 1.31 | 1.96 | 2.72 | 1.64 | 2.18 | 0.834 | 2.79 | 0.27 | 1.12 | 2.05 | 2.8 | 0.435 | 1.89 | 0.774 | 3.7 | – | – | –
2 | Cc1ccc(C(=O)Nc2ccc(CN3CCN(C)CC3)c(C(F)(F)F)c2)cc1C#Cc1cnc2cccnn12 | – | – | > 1000 nM | 458 nM | 43.2 nM | – | – | 337 nM | 406 nM | 391 nM | 0.0834 | 0 | 0.178 | 0 | 1.07 | 0.0086 | 11.6 | 0 | 0.047 | 0 | 0.62 | 1.21 | 1.72 | 0.248 | 1.26 | > 1 µM | – | –
3 | O=c1[nH]cc(F)c(=O)[nH]1 [Fluorouracil] | 1430 nM | > 10000 nM | > 10000 nM | > 10000 nM | > 10000 nM | > 10000 nM | – | > 10000 nM | > 10000 nM | > 10000 nM | 3.05 | 2.93 | 0 | 0 | 0 | 0 | 0 | 1.39 | 0.596 | 0 | 0.0675 | 0 | 0 | 0 | 0 | – | > 10 µM | –
4 | COc1cc2ncnc(Nc3ccc(F)c(Cl)c3)c2cc1OCCCN1CCOCC1 [Gefitinib] | – | 4190 nM | 1030 nM | 115 nM | > 10000 nM | 176 nM | – | 1410 nM | 65.4 nM | > 10000 nM | 1.16 | 2.5 | 1.2 | 9.4 | 22.7 | 1.51 | 0 | 0.0359 | 1.45 | 20.3 | 0.0062 | 0 | 4.57 | 0 | 24.9 | – | – | –
5 | C[C@]12O[C@H](C[C@]1(O)CO)n1c3ccccc3c3c4c(c5c6ccccc6n2c5c31)CNC4=O [Lestaurtinib] | – | > 1000 nM | – | 160 nM | > 1000 nM | – | > 1000 nM | > 1000 nM | 349 nM | – | 0.0147 | 0.382 | 0 | 0.345 | 3.7 | 0 | 0 | 0 | 0 | 0.589 | 0 | 0.579 | 0 | 0.391 | 2.16 | > 1 µM | > 1 µM | –
6 | Cc1ccc(NC(=O)c2ccc(CN3CCN(C)CC3)cc2)cc1Nc1nc(-c2cccnc2)cs1 [Masitinib] | 1540 nM | 3770 nM | – | 3640 nM | 1780 nM | 2570 nM | 3570 nM | 3230 nM | 3350 nM | 3460 nM | 1.85 | 3.51 | 1.67 | 0.359 | 3.44 | 0.886 | 2.68 | 0 | 0.352 | 5.8 | 1.85 | 2.81 | 1.99 | 1.1 | 4.94 | > 10 µM | – | 2580 nM

More lines, main results first:

Row | relative IC50 (MCF-7 [1]; 4-OH-tamoxifen in medium 0 µM) | relative IC50 (MCF-7 [1]; 4-OH-tamoxifen in medium 1 µM) | relative IC50 (BT-474 [2]; 4-OH-tamoxifen in medium 0 µM) | relative IC50 (BT-474 [2]; 4-OH-tamoxifen in medium 1 µM) | relative IC50 (T-47D Tam1 [3]) | relative IC50 (BT-474 Tam2 [4]) | relative IC50 (T-47D [5]; 4-OH-tamoxifen in medium 0 µM) | relative IC50 (T-47D Tam2 [6]) | relative IC50 (BT-474 Tam1 [7]) | relative IC50 (T-47D [5]; 4-OH-tamoxifen in medium 1 µM) | Structure (SMILES) | drug sensitivity score (ZR-75-1 Tam2 [8]) | drug sensitivity score (MCF-7 [9]; 4-OH-tamoxifen in medium 0 µM) | drug sensitivity score (MCF-7 [9]; 4-OH-tamoxifen in medium 1 µM) | drug sensitivity score (BT-474 [10]; 4-OH-tamoxifen in medium 0 µM) | drug sensitivity score (BT-474 [10]; 4-OH-tamoxifen in medium 1 µM) | drug sensitivity score (ZR-75-1 Tam1 [11]) | drug sensitivity score (T-47D Tam1 [12]) | drug sensitivity score (ZR-75-1 [13]; 4-OH-tamoxifen in medium 0 µM) | drug sensitivity score (ZR-75-1 [13]; 4-OH-tamoxifen in medium 1 µM) | drug sensitivity score (BT-474 Tam2 [14]) | drug sensitivity score (T-47D [15]; 4-OH-tamoxifen in medium 0 µM) | drug sensitivity score (T-47D [15]; 4-OH-tamoxifen in medium 1 µM) | drug sensitivity score (T-47D Tam2 [16]) | drug sensitivity score (MCF-7 Tam1) | drug sensitivity score (BT-474 Tam1 [17]) | relative IC50 (ZR-75-1 [18]) | relative IC50 (ZR-75-1 Tam1 [19]) | relative IC50 (ZR-75-1 Tam2 [20])
7 | 561 nM | 376 nM | 719 nM | 1020 nM | 65.3 nM | 785 nM | 804 nM | 584 nM | 853 nM | 223 nM | CC(=O)OC[C@H]1O[C@@H]([S-])[C@H](OC(C)=O)[C@@H](OC(C)=O)[C@@H]1OC(C)=O.CCP(CC)CC.[Au+] [Auranofin] | 0.324 | 6.78 | 2.93 | 3.43 | 4.22 | 0.421 | 11.5 | 0.254 | 1.38 | 3.68 | 1.36 | 4.22 | 4.19 | 1.48 | 5 | – | – | –
8 | > 10000 nM | > 10000 nM | 1770 nM | 1250 nM | 1230 nM | 1960 nM | – | 370 nM | 1370 nM | > 10000 nM | C#Cc1cccc(Nc2ncnc3cc(OCCOC)c(OCCOC)cc23)c1 [Erlotinib] | 0.0461 | 0 | 0 | 3.4 | 9.97 | 0.136 | 3.91 | 0 | 0.0315 | 7.08 | 0.57 | 0 | 5.31 | 0.0215 | 9.3 | > 10 µM | – | –
